From ChEMBL document CHEMBL4033705, “Screening for bioactive natural products from a 67-compound library of Glycyrrhiza inflata” (Bioorg Med Chem, 2017)

Assays:
SW480 [1] = assay: Growth inhibition of human SW480 cells at 10 uM after 24 hrs by MTS assay relative to control; type: functional; conditions: SW480, 24 h, read-out: GI
HepG2 = assay: Growth inhibition of human HepG2 cells at 10 uM after 24 hrs by MTS assay relative to control; type: functional; conditions: HepG2, 24 h, read-out: GI
[2] = target: T1, Tyrosine-protein phosphatase non-receptor type 1 (Homo sapiens) (UniProt P18031); assay: Inhibition of recombinant human PTP1B using p-nitrophenyl phosphate as substrate at 10 uM after 30 mins relative to control
T1 sequence (whole entry): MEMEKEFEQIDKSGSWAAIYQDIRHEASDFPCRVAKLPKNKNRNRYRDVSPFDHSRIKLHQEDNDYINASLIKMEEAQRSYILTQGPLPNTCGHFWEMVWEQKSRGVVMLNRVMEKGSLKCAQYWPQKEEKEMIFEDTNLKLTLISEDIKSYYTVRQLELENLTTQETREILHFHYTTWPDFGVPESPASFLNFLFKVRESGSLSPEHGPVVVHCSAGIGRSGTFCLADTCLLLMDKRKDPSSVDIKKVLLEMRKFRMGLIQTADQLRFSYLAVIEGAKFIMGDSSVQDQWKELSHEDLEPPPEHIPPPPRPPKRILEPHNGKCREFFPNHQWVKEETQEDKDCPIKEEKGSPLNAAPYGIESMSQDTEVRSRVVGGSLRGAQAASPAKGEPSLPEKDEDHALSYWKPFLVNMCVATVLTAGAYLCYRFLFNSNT

Homo sapiens = species on record: Homo sapiens; assay: Inhibition of LPS-induced NF-kappaB transcription (unknown origin) expressed in human SW480 cells at 10 uM by luciferase reporter gene assay; type: cell-based
MCF7 [3] = assay: Growth inhibition of human MCF7 cells at 10 uM after 24 hrs by MTS assay relative to control; type: functional; conditions: MCF7, 24 h, read-out: GI
[4] = target: Mushroom tyrosinase (Agaricus bisporus) (UniProt O42713+Q00024+C7FF04+C7FF05); assay: Inhibition of mushroom tyrosinase at 10 uM using L-tyrosine as substrate incubated for 15 mins followed by substrate addition relative to control
RAW264.7 = assay: Antiinflammatory activity in mouse RAW264.7 cells assessed as inhibition of LPS-induced NO production at 10 uM after 24 hrs by Griess reagent based assay relative to control; type: functional; conditions: RAW264.7, 24 h
MCF7 [5] = assay: Cytotoxicity against human MCF7 cells assessed as reduction in cell viability after 24 hrs by MTS assay; type: functional, cell-based; conditions: MCF7, 24 h
SW480 [6] = assay: Cytotoxicity against human SW480 cells assessed as reduction in cell viability after 24 hrs by MTS assay; type: functional, cell-based; conditions: SW480, 24 h
[7] = Growth inhibition of human LO2 cells at 10 uM after 24 hrs by MTS assay relative to control; type: cell-based, L02; conditions: LO2 cells, read-out: GI
[8] = Growth inhibition of human HEK293T cells at 10 uM after 24 hrs by MTS assay relative to control; type: cell-based, HEK-293T; conditions: HEK293T cells, read-out: GI
[9] = Inhibition of LPS-induced NF-kappaB transcription (unknown origin) expressed in human SW480 cells by luciferase reporter gene assay; type: cell-based
[10] = target: T2, Tyrosine-protein phosphatase non-receptor type 1 (Homo sapiens, UniProt P18031); assay: Inhibition of recombinant human PTP1B using p-nitrophenyl phosphate as substrate after 30 mins
T2 sequence (P18031 whole entry): T1 sequence (whole entry)

Row | Compound | inhibition of growth at 10 µM (SW480 [1]) | inhibition of growth at 10 µM (HepG2) | inhibition [2] | inhibition (Homo sapiens) | inhibition of growth at 10 µM (MCF7 [3]) | inhibition [4] | inhibition at 10 µM (RAW264.7) | IC50 (MCF7 [5]) | IC50 (SW480 [6]) | inhibition at 24 h, 10 µM [7] | inhibition at 24 h, 10 µM [8] | IC50 [9] | IC50 [10]
1 | O=c1c(-c2ccc(O)cc2)coc2cc(O)cc(O)c12 [GENISTEIN] | 21% | 29% | 29% | 14% | 6% | 2% | 13% | – | – | – | – | – | –
2 | CC1(C)C=Cc2cc(-c3coc4cc(O)ccc4c3=O)cc(O)c2O1 | 5% | 14% | 0% | 23% | 0% | 0% | 22% | – | – | – | – | – | –
3 | CC(C)=CCc1c(O)c(CC=C(C)C)c2occ(-c3ccc(O)cc3)c(=O)c2c1O | 81% | 30% | 51% | 26% | 73% | 7% | 22% | 8.58 µM | 8.08 µM | 12% | 49% | – | –
4 | CC1(C)C=Cc2c(cc3occ(-c4ccc(O)cc4)c(=O)c3c2O)O1 [ALPINUMISOFLAVONE] | 13% | 40% | 79% | 41% | 3% | 2% | 19% | – | – | 5% | 15% | – | –
5 | CC(C)=CCc1c(O)ccc(-c2coc3cc(O)cc(O)c3c2=O)c1O | 26% | 5% | 7% | 5% | 18% | 5% | 20% | – | – | – | – | – | –
6 | C=CC(C)(C)c1cc(/C=C/C(=O)c2ccc(O)cc2)c(OC)c(O)c1O | 36% | 22% | 48% | 66% | 31% | 12% | 50% | – | – | 5% | 11% | 6.67 µM | –
7 | CC(C)=CCc1cc(-c2coc3c(CC=C(C)C)c(O)cc(O)c3c2=O)cc(O)c1O | 55% | 0% | 92% | 14% | 3% | 2% | 0% | – | – | – | – | – | 4.5 µM
8 | CC(C)=CCc1c(O)ccc(-c2coc3cc(O)ccc3c2=O)c1O | 35% | 11% | 56% | 3% | 36% | 6% | 25% | – | – | – | – | – | –
9 | O=C(/C=C/c1ccc(O)c(O)c1)c1ccc(O)c(O)c1 | 10% | 8% | 1% | 13% | 5% | 16% | 1% | – | – | – | – | – | –
10 | COc1cc([C@H]2COc3cc(O)ccc3C2)ccc1O | 24% | 3% | 2% | 0% | 14% | 6% | 23% | – | – | – | – | – | –
11 | CC(C)=CCc1c(O)ccc2c1oc1c3ccc(O)cc3oc(=O)c21 [ISOSOJAGOL] | 26% | 23% | 21% | 28% | 12% | 11% | 15% | – | – | – | – | – | –
12 | CC(C)=CCc1cc(-c2cc(=O)c3c(O)c(CC=C(C)C)c(O)cc3o2)ccc1O | 86% | 34% | 94% | 0% | 25% | 12% | 5% | – | 6.35 µM | 33% | 3% | – | 0.55 µM
